According to BindingDB's records for doi:10.1016/j.bmcl.2007.02.040 (Merck Research Laboratories, 2007):
pIC50: −log10 of the molar value.

Target: Dipeptidyl peptidase 4 (Homo sapiens, UniProt P27487)
Test: Dipeptidyl Peptidase Inhibition Assay
Conditions: pH 7.5; 37 °C

Dipeptidyl peptidase 4, sequence (P27487 whole entry): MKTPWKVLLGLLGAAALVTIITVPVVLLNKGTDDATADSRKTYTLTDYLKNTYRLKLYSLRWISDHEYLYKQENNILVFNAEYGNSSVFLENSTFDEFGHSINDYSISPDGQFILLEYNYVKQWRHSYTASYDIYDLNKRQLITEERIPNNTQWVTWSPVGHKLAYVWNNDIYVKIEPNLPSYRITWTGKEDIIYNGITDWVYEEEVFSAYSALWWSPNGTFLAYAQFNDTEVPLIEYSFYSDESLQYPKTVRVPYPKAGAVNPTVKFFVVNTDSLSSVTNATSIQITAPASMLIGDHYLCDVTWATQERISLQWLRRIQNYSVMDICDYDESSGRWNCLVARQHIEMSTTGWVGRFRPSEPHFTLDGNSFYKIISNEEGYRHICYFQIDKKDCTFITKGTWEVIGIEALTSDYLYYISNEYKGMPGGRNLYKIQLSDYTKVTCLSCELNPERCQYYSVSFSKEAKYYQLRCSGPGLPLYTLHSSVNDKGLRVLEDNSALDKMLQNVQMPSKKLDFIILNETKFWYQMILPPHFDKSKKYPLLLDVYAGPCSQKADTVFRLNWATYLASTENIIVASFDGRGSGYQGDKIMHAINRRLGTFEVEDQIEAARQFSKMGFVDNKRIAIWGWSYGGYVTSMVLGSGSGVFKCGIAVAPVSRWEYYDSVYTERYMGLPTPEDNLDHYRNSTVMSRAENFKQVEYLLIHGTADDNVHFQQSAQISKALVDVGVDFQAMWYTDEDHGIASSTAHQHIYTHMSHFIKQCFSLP

SMILES | pIC50
CC(C)[C@H](Oc1ccc(CNC(=O)[C@@H]2CCCN2C(=O)C[C@H](N)Cc2c(F)c(F)c(F)c(F)c2F)cc1)C(=O)O [(2S)-2-[4-({[(2S)-1-[(3R)-3-amino-4-(2,3,4,5,6-pentafluorophenyl)butanoyl]pyrrolidin-2-yl]formamido}methyl)phenoxy]-3-methylbutanoic acid] | 8.10
C[C@H](C(=O)N1CCOCC1)[C@@H](C(=O)N(C)C)c1ccc(-c2ccc(F)cc2)cc1 [(2R,3S)-2-[4-(4-fluorophenyl)phenyl]-N,N,3-trimethyl-4-(morpholin-4-yl)-4-oxobutanamide] | 6.28
